Measured values taken from US11938110B2, “Use of verapamil for the treatment of SARS-Cov-2 induced COVID-19” (priority 2020, dated 2024).
Structures can show the parent of a compound that is named as a salt.

Key:
[1] = system: COVID-19 patients with hypertension; conditions: oral administration; cited from earlier work
[2] = system: patients with Chronic obstructive pulmonary disease (COPD); conditions: nasal spray
[3] = system: SARS-COV-2 (USA-WA1/2020); conditions: Huh7 cells, MOI 0.1, 6.25, 12.5, 25 and 50 uM, compared to DMSO, 48 hours after infection

Row | Compound | case fatality rate of patients with hypertension [1] | toxicity against Huh7 cells (Huh7 cells) | blood oxygen pressure [2] | correction of blood pH [2] | oxygen saturation after inhalation ([2]; after inhalation) | oxygen saturation before inhalation ([2]; baseline) | viral RNA in the supernatant [3]
1 | CCOC(=O)C1=C(COCCN)NC(C)=C(C(=O)OC)C1c1ccccc1Cl (stereo not shown) [amlodipine besylate] | distinctly reduced | – | – | – | – | – | –
2 | COc1ccc(CCN(C)CCCC(C#N)(c2ccc(OC)c(OC)c2)C(C)C)cc1OC (stereo not shown) [verapamil hydrochloride] | – | no significant toxicity | improved | improved | 95.75±14.57 | 91.2±12.15 | dose-dependent reduction
